Here are results for seven compounds from patent US4841076A, “Benzopyran derivatives” (Daiichi Seiyaku Co., Ltd., priority 1986, dated 1989).

The conditions of data set [1]: in words, literature; cited from earlier work.
Data set [2] is described as follows: Acute toxicity (LD50). Conditions: rat, in vivo, po; P.O. in Rats. The text has this:
The compound of the present invention has a low toxicity, and the acute toxicity (LD50) of typical compounds of formula (I) is shown in the following Table 4.

Data set [3] concerns male rats. Description: Uricosuric Activity (fractional excretion of uric acid). In kind it is in vivo. Conditions: orally, 30 min urine from 60 min after dosing. The method, then:
Male rats weighing 150 to 250 g were fasted overnight and, the next morning, orally administered with either (1) 25 ml/Kg of physiological saline (control group) or (2) a test compound which was suspended in 0.5 wt % carboxymethylcellulose. After 60 minutes from the administration of the test compound, urine over a period of 30 minutes was collected. Thereafter, blood was taken from the arotid artery under anesthesia, and uric acid concentrations in the urine and the serum were determined by the enzyme method. On the other hand, […] concentrations in the urine and the serum were determined by a Jaffe's method to obtain the fractional excretion of uric acid. Percent of uric acid excretion was calculated by dividing the value of fractional excretion in the test group by that in the control group.

Data set [4] deals with hypertensive rats. Description: Antihypertensive Activity (DOCA/saline hypertensive rats, tail cuff). In kind it is in vivo. Conditions: DOCA hypertensive rats, orally once a day, systolic pressure vs control. The method, then:
Four-week-old male rats weighing 120 to 150 g were subcutaneously injected with DOCA (desoxycorticosterone acetate) and fed on a 1% saline solution to cause hypertension in accordance with the method of Seyle, et al. as described in American Heart Journal, Vol. 37, 1009 (1949). The test compound was orally administered to the hypertensive rats once a day for 4 weeks. The blood pressure of the animal was measured by a tail cuff method every one week from the start of the administration.
In Table 3, antihypertensive activity (ΔmmHg) was obtained by subtracting the systolic pressure of the test group from that of the control group.

Data set [5] deals with male rats. Put plainly: Diuretic Activity and Natriuretic Activity. In kind it is in vivo. Conditions: 300 mg/Kg, orally, urine collected for 5 hours, control value subtracted. As to the method:
Male rats weighing 150 to 250 g were fasted overnight and, the next morning, orally administered with either (1) 25 ml/Kg of physiological saline (control group) or (2) a test compound which was suspended in 0.5 wt % carboxymethylcellulose. Urine after dosing was collected for 5 hours, and urinary volume and sodium concentration were measured. Each parameter was calculated by subtracting the value of the control group from that of the test group.

For `CC1(c2ccccc2)Cc2cc(OCC(=O)O)c(Cl)c(Cl)c2C1=O` (centres unmarked) [indacrinone], the “diuretic, saluretic and uricosuric activities” value in data set [1] is “having diuretic and uricosuric activities”.

A word on the LD50: it is the dose at which mortality reaches 50%. In the case of `O=C(O)COc1cc(Cl)c2c(=O)c(-c3ccccc3Cl)coc2c1` [(c), {[5-Chloro-3-(2-chlorophenyl)-4-oxo-4H-1-benzopyran-7-yl]oxy}acetic acid], in data set [2], the median lethal dose (LD50) turned out to be 1410 mg/kg. Besides, the “% of Uric Acid Excretion” value in data set [3] (100 mg/Kg) is 36%. In addition, in data set [4] (100 mg/Kg), the “Antihypertensive Activity After 1 Week” value was 13.6 ΔmmHg, the “Antihypertensive Activity After 2 Weeks” value is given as 20.7 ΔmmHg and the “Antihypertensive Activity After 3 Weeks” value is 29.3 ΔmmHg. Also, in data set [5], the “Increase in Urinary Na^+” value is on record as 1015 ΔμEq and the “Increase in Urinary Output” value is 41.0 Δml/Kg.

Regarding `Cc1ccccc1-c1coc2cc(OCC(=O)O)cc(Cl)c2c1=O` [(d), {[5-Chloro-3-(2-methylphenyl)-4-oxo-4H-1-benzopyran-7-yl]oxy}acetic acid], the “% of Uric Acid Excretion” value in data set [3] (100 mg/Kg) came out at 56%. Further, in data set [4] (100 mg/Kg), the “Antihypertensive Activity After 1 Week” value is 12.1 ΔmmHg, the “Antihypertensive Activity After 2 Weeks” value is 14.3 ΔmmHg and the “Antihypertensive Activity After 3 Weeks” value is 15.7 ΔmmHg. Moreover, in data set [5], the “Increase in Urinary Na^+” value is 1196 ΔμEq and the “Increase in Urinary Output” value is reported as 49.6 Δml/Kg.

Compound `Cc1cc(OCC(=O)O)cc2occ(-c3ccccc3)c(=O)c12` [(b), [(5-Methyl-4-oxo-3-phenyl-4H-1-benzopyran-7-yl)oxy]acetic acid] displayed an LD50 in data set [2] of 936 mg/kg. In data set [3] (100 mg/Kg), the “% of Uric Acid Excretion” value stood at 66%. Besides, in data set [4] (100 mg/Kg), the “Antihypertensive Activity After 1 Week” value is recorded as 10.0 ΔmmHg, the “Antihypertensive Activity After 2 Weeks” value was 17.9 ΔmmHg and the “Antihypertensive Activity After 3 Weeks” value was 15.0 ΔmmHg. In data set [5], the “Increase in Urinary Na^+” value was 987 ΔμEq and the “Increase in Urinary Output” value was 23.6 Δml/Kg.

For the compound `O=C(O)COc1ccc(C(=O)c2cccs2)c(Cl)c1Cl` [Tienilic acid, [2,3-dichloro-4-(2-thenoyl)phenoxy]acetic acid, reference compound], the “% of Uric Acid Excretion” value in data set [3] (200 mg/Kg) is listed as 38%. Besides, the “diuretic, saluretic and uricosuric activities” value in data set [1] was “having diuretic and uricosuric activities”. Further, in data set [4] (300 mg/Kg), the “Antihypertensive Activity After 1 Week” value was 23.6 ΔmmHg, the “Antihypertensive Activity After 2 Weeks” value was 35.0 ΔmmHg and the “Antihypertensive Activity After 3 Weeks” value was 44.3 ΔmmHg. Also, in data set [5], the “Increase in Urinary Na^+” value is listed as 353.4 ΔμEq and the “Increase in Urinary Output” value was 10.2 Δml/Kg.

Regarding `O=C(O)COc1cc(Cl)c2c(=O)c(Cc3ccccc3)coc2c1` [(e), [(3-Benzyl-5-chloro-4-oxo-4H-1-benzopyran-7-yl)oxy]acetic acid], the “% of Uric Acid Excretion” value in data set [3] (100 mg/Kg) is on record as 39%. Besides, in data set [4] (100 mg/Kg), the “Antihypertensive Activity After 1 Week” value was 6.2 ΔmmHg, the “Antihypertensive Activity After 2 Weeks” value is recorded as 28.7 ΔmmHg and the “Antihypertensive Activity After 3 Weeks” value is on record as 39.4 ΔmmHg. Further, in data set [5], the “Increase in Urinary Na^+” value is on record as 967 ΔμEq and the “Increase in Urinary Output” value is given as 37.9 Δml/Kg.

As to `O=C(O)COc1cc(Cl)c2c(=O)c(-c3ccccc3)coc2c1` [(a), [(5-Chloro-4-oxo-3-phenyl-4H-1-benzopyran-7-yl)oxy]acetic acid], the LD50 in data set [2] amounted to 1020 mg/kg. Besides, in data set [3] (100 mg/Kg), the “% of Uric Acid Excretion” value is reported as 136%. In addition, in data set [4] (100 mg/Kg), the “Antihypertensive Activity After 1 Week” value is on record as 13.7 ΔmmHg, the “Antihypertensive Activity After 2 Weeks” value is listed as 37.0 ΔmmHg and the “Antihypertensive Activity After 3 Weeks” value is 49.0 ΔmmHg. For the same compound, in data set [5], the “Increase in Urinary Na^+” value is given as 1220 ΔμEq and the “Increase in Urinary Output” value is on record as 51.8 Δml/Kg.
